Test system: Parc-overexpressing (Flag-Parc/U2OS) cells
Assay: Subcellular p53 localization by immunofluorescent staining (anti-p53 1801)
Type: cell-based, human
Conditions: etoposide 1 μM for 6 hours
Source text: FIGS. 10A and 10B Parc over-expression abrogates stress-induced nuclear localization of endogenous p53 in U2OS cells. […] The etoposide-treated cells were immunostained with anti-p53 antibody (1801) (visualized by fluorescence) and counterstained with DAPI to visualize the nuclei. (B) Quantification of subcellular p53 localization in parental U2OS and in Parc-overexpressing (Flag-Parc/U2OS) cell lines after the cells were immunostained with the anti-p53 antibody (1801).
For the p53 cytoplasmic sequestration assay, cells were transfected with 30 ng/well CMV-p53 and 150 ng/well CMV-Parc. 24 hours post-transfection cells were fixed with 4% paraformaldehyde for 20 min. on ice, rehydrated for 5 min in serum-free DMEM and permeabilized with 0.2% Triton X100 (Fisher) for 10 min on ice. Cells were incubated in 1% bovine serum albumin (BSA) (Sigma)/Phosphate Buffered Salt solution (PBS) (Cellgro) for 30 min. Primary p53-specific monoclonal (for endogenous p53 immunostaining) (DO-1, 1801, Santa Cruz) or polyclonal (for transfected p53 immunostaining) (FL-393, Santa Cruz) antibodies or anti-Flag monoclonal antibody (for transfected Flag-Parc and Flag-Myc immunostaining) (Santa Cruz) were added in 1% BSA/PBS for 45 min at room temperature. […]

COc1cc([C@@H]2c3cc4c(cc3[C@@H](O[C@@H]3O[C@@H]5CO[C@@H](C)O[C@H]5[C@H](O)[C@H]3O)[C@H]3COC(=O)[C@H]23)OCO4)cc(OC)c1O [etoposide]
cells with nuclear p53 staining: less than 30%
